Reference: US7125958B1, “Malaria polypeptides” (priority 1997, dated 2006)

Legend:
Type in all cases: cell-based, Plasmodium falciparum
[1] = test system: FCR3S1.2 infected pRBC rosettes; details: competitive rosette-reformation, enzyme 60–90 min
FCR3S1 rosetting = details: compared to mock treated control cultures
TM 284 rosetting = test system: TM 284 rosetting
[2] = test system: uninfected RBC rosette binding capacity; details: compared to non-treated RBC
TM180 rosettes = experiment: Heparinase treatment, rosettes of strain TM180; details: not shown
R29 rosettes = experiment: Heparinase treatment, rosettes of strain R29; details: not shown

Substance: Heparinase III
- effect of enzyme treatment of the uninfected erythrocyte on rosette binding [1]: treatment blocked the binding
- change in rosetting after treatment of whole cultures, FCR3S1 (FCR3S1 rosetting): drastic reduction of the rosetting capacity
- change in rosetting after treatment of whole cultures, TM 284 (TM 284 rosetting; compared to mock treated control cultures): somewhat lower decrease
- effect of heparinase treatment on rosettes, TM284 (TM 284 rosetting; not shown): disrupted the rosettes
- decrease of rosette binding capacity of treated uninfected RBC [2]: 4–5 fold
- effect of heparinase treatment on rosettes, TM180 (TM180 rosettes): disrupted the rosettes
- effect of heparinase treatment on rosettes, R29 (R29 rosettes): not affected
